Assay results from ChEMBL document CHEMBL1139101, “Potent, selective, and orally active adenosine A2A receptor antagonists: arylpiperazine derivatives of pyrazolo[4,3-e]-1,2,4-triazolo[1,5-c]pyrimidines” (Bioorg Med Chem Lett, 2007).
In brackets after ≈: the same amount, converted by molar mass.

Tests used:
Adenosine receptor A2a [1] = biological target: Adenosine receptor A2a (Homo sapiens, UniProt P29274); assay: Binding affinity to human adenosine A2A receptor
Homo sapiens [2] = species: Homo sapiens; assay: Selectivity of human adenosine A2A receptor over human adenosine A1 receptor
Rattus norvegicus [3] = assay: Inhibition of haloperidol-induced catalepsy in rat at 1 mg/kg, po after 1 hr; format: functional
Rattus norvegicus [4] = assay: Inhibition of haloperidol-induced catalepsy in rat at 1 mg/kg, po after 4 hrs; format: functional
Homo sapiens [5] = species: Homo sapiens; assay: Selectivity of human adenosine A2A receptor over human adenosine A2B receptor
Homo sapiens [6] = species: Homo sapiens; assay: Selectivity of human adenosine A2A receptor over human adenosine A3 receptor
[7] = biological target: Adenosine receptor A2a (Rattus norvegicus) (UniProt P30543); assay: Antagonist activity at rat adenosine A2A receptor assessed as CGS 21680-induced inhibition of adenylate cyclase activity by cell-based assay; format: functional
Adenosine receptor A2a [8] = biological target: Adenosine receptor A2a (Rattus norvegicus, UniProt P30543); assay: Binding affinity to rat adenosine A2A receptor
Rattus norvegicus [9] = assay: Reversal of haloperidol-induced catalepsy in orally dosed rat after 1 hr; format: functional; conditions: po, read-out: MED
Adenosine receptor A1 = biological target: T1, Adenosine receptor A1 (Homo sapiens, UniProt P30542); assay: Binding affinity to human adenosine A1 receptor
T1 sequence (P30542 whole entry): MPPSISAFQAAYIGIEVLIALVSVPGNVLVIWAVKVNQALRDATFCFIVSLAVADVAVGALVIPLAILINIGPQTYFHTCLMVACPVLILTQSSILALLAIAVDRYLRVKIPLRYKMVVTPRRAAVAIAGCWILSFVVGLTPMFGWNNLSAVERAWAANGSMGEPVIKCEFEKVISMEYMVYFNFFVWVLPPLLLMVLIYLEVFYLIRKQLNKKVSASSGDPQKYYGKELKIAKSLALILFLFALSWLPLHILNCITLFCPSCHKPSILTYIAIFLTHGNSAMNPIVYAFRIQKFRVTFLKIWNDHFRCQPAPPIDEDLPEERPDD

Adenosine receptor A2b = biological target: T2, Adenosine receptor A2b (Homo sapiens, UniProt P29275); assay: Binding affinity to human adenosine A2B receptor
T2 sequence (P29275 whole entry): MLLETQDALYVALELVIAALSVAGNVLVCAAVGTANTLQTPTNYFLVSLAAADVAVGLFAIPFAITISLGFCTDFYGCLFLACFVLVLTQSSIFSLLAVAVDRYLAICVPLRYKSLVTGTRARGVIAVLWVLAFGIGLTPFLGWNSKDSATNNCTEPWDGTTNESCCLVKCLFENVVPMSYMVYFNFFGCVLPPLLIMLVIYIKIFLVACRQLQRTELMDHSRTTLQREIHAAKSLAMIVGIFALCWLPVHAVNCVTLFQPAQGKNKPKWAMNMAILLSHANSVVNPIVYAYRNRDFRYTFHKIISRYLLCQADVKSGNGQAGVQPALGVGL

Adenosine receptor A3 = biological target: T3, Adenosine receptor A3 (Homo sapiens, UniProt P0DMS8); assay: Binding affinity to human adenosine A3 receptor
T3 sequence (P0DMS8 whole entry): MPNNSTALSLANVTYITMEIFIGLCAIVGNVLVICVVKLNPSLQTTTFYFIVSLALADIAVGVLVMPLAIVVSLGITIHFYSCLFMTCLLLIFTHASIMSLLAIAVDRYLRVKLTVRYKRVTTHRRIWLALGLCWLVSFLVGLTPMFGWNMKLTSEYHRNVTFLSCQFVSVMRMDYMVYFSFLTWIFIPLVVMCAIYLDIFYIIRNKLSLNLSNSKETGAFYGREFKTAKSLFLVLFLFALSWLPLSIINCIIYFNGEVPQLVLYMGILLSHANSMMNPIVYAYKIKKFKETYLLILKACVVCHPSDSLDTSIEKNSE

[10] = Solubility in water at pH 5.1; format: physicochemical
[11] = Solubility in 0.01 N Hcl; format: physicochemical; conditions: buffer
[12] = Cmax in rat at 3 mg/kg, po; format: ADME, organism-based; parameters: dose 3 mg/kg, route oral; conditions: in vivo
[13] = Tmax in rat at 3 mg/kg, po; format: ADME, organism-based; parameters: dose 3 mg/kg, route oral; conditions: in vivo
[14] = AUC in rat at 3 mg/kg, po; format: ADME, organism-based; parameters: dose 3 mg/kg, route oral; conditions: plasma
[15] = Half life in rat at 1 mg/kg, iv; format: ADME, organism-based; parameters: dose 1 mg/kg, route intravenous; conditions: in vivo
[16] = Clearance in rat at 1 mg/kg, iv; format: ADME, organism-based; parameters: dose 1 mg/kg, route intravenous; conditions: in vivo
[17] = Volume of distribution at steady state in rat at 1 mg/kg, iv; format: ADME, organism-based; parameters: dose 1 mg/kg, route intravenous; conditions: in vivo, read-out: Vdss
[18] = Oral bioavailability in rat at 3 mg/kg; format: ADME, organism-based; conditions: in vivo
[19] = Ratio of drug level in brain to plasma in rat; format: ADME

Adenosine receptor A2a (Homo sapiens, UniProt P29274), sequence (P29274 whole entry): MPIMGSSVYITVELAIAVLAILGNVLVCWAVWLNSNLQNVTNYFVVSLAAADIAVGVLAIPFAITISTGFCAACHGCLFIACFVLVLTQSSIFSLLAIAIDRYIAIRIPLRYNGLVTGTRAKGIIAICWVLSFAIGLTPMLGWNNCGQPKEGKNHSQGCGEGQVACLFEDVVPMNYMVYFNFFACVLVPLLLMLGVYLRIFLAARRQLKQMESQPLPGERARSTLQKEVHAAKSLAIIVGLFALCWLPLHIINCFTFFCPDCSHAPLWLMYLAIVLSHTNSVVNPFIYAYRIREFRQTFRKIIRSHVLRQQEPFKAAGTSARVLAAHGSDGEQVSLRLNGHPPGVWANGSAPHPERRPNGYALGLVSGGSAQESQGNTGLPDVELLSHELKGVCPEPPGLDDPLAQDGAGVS
Adenosine receptor A2a (Rattus norvegicus), sequence (P30543 whole entry): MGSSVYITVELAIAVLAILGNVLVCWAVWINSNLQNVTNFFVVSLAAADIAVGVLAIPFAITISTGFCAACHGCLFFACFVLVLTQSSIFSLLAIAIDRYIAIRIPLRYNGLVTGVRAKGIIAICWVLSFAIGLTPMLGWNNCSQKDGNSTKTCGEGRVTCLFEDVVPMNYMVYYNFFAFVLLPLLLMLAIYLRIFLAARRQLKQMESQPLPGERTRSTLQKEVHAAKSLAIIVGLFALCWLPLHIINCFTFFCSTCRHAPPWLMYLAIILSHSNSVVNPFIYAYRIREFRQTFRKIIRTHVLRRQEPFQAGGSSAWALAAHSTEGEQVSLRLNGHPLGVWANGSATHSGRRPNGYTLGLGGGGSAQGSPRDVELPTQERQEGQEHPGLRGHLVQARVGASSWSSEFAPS
Adenosine receptor A2a (Rattus norvegicus, UniProt P30543), sequence (P30543 whole entry): as above

| Compound | Ki (Adenosine receptor A2a [1]) [nM] | Ratio Ki (Homo sapiens [2]) | inhibition in vivo at 1 mg/kg (Rattus norvegicus [3]) [%] | inhibition in vivo at 1 mg/kg (Rattus norvegicus [4]) [%] | further results |
| --- | --- | --- | --- | --- | --- |
| Nc1nc2c(cnn2CCN2CCN(c3ccccc3F)CC2)c2nc(-c3ccco3)nn12 | 0.6 | 894 | 20 | 25 | – |
| Nc1nc2c(cnn2CCN2CCN(c3ccc(F)cc3)CC2)c2nc(-c3ccco3)nn12 | 1 | 101 | 8 | – | – |
| COCCOc1ccc(N2CCN(CCn3ncc4c3nc(N)n3nc(-c5ccco5)nc43)CC2)cc1 | – | – | – | – | Activity (Homo sapiens [5]): > 1000; Activity (Homo sapiens [6]): > 1000; Kb [7]: 0.7 nM |
| Nc1nc2c(cnn2CCN2CCN(c3ccc(F)c(F)c3)CC2)c2nc(-c3ccco3)nn12 | 1.4 | 169 | 45 | – | – |
| Nc1nc2c(cnn2CCN2CCN(c3ccc(F)cc3F)CC2)c2nc(-c3ccco3)nn12 | 0.6 | > 1600 | 75 | 80 | – |
| CC(=O)COc1ccc(N2CCN(CCn3ncc4c3nc(N)n3nc(-c5ccco5)nc43)CC2)cc1 | 0.8 | 427 | 15 | 10 | – |
| COCCOc1ccc(N2CCN(CCn3ncc4c3nc(N)n3nc(-c5ccco5)nc43)CC2)cc1 [PRELADENANT] | – | – | 77 | 70 | Ki (Adenosine receptor A2a [8]): 2.5 nM; minimal effective dose (Rattus norvegicus [9]): 0.3 mg/kg; Ki (Adenosine receptor A1): > 1000 nM; Ki (Adenosine receptor A2b): > 1700 nM; Ki (Adenosine receptor A3): > 1000 nM; solubility [10]: 0.2 µM (≈ 0.101 µg/mL); solubility [11]: 2000 µM (≈ 1010 µg/mL) |
| Nc1nc2c(cnn2CCN2CCN(c3ccc(O)cc3)CC2)c2nc(-c3ccco3)nn12 | 1.3 | 186 | 0 | – | – |
| Nc1nc2c(cnn2CCN2CCN(c3ccc(F)c(F)c3F)CC2)c2nc(-c3ccco3)nn12 | 0.6 | 1500 | 65 | 40 | – |
| COCCOc1ccc(N2CCN(CCn3ncc4c3nc(N)n3nc(-c5ccco5)nc43)CC2)c(F)c1 | 0.4 | 1740 | 60 | 70 | – |
| COCCOc1ccc(N2CCN(CCn3ncc4c3nc(N)n3nc(-c5ccco5)nc43)CC2)cc1.Cl | – | – | – | – | Cmax [12]: 762 nM; Tmax [13]: 0.25 h; AUC [14]: 1.56 µM·h; half-life [15]: 2.1 h; clearance [16]: 37 mL/min/kg; Vd [17]: 2.6 L/kg; bioavailability [18]: 57%; Kp [19]: 1 |
| N#Cc1ccc(N2CCN(CCn3ncc4c3nc(N)n3nc(-c5ccco5)nc43)CC2)cc1 | 2.1 | 571 | 0 | – | – |
| Nc1nc2c(cnn2CCN2CCN(c3ccc(OCCOC4CC4)cc3)CC2)c2nc(-c3ccco3)nn12 | 0.6 | 930 | 59 | 30 | – |
| C[S+]([O-])COc1ccc(N2CCN(CCn3ncc4c3nc(N)n3nc(-c5ccco5)nc43)CC2)cc1 (stereo unspecified) | 2.2 | 523 | 30 | 5 | – |
| Nc1nc2c(cnn2CCN2CCN(c3c(F)cc(F)cc3F)CC2)c2nc(-c3ccco3)nn12 | 1.1 | 319 | 65 | 75 | – |
| COCCCOc1ccc(N2CCN(CCn3ncc4c3nc(N)n3nc(-c5ccco5)nc43)CC2)cc1 | 0.6 | 1160 | 8 | 2 | – |
| CCOc1ccc(N2CCN(CCn3ncc4c3nc(N)n3nc(-c5ccco5)nc43)CC2)cc1 | 1.4 | 848 | 27 | – | – |
| Nc1nc2c(cnn2CCN2CCN(c3ccccc3)CC2)c2nc(-c3ccco3)nn12 | 1.6 | 343 | 52 | 0 | – |
| Nc1nc2c(cnn2CCN2CCN(c3ccc(Cl)cc3)CC2)c2nc(-c3ccco3)nn12 | 0.5 | 1350 | 11 | – | – |
| Nc1nc2c(cnn2CCN2CCN(c3ccc(OCCO)cc3)CC2)c2nc(-c3ccco3)nn12 | 0.6 | 1520 | 15 | 25 | – |
| COC(C)COc1ccc(N2CCN(CCn3ncc4c3nc(N)n3nc(-c5ccco5)nc43)CC2)cc1 (racemic) | 1.6 | 539 | 55 | 20 | – |
